From patent US20230085686A1, “Multicompartement hydrogel fibre their preparation and uses thereof” (Association For The Advancement Of Tissue Engineering And …, priority 2020, published 2023)

Test system: Melanoma cells of the Sk-MEL-28 cell line
Experiment: Drug test with doxorubicin in modular cancer/BM/stroma ribbon fibres, Calcein AM / Propidium Iodide viability
Type: cell-based, human
Conditions: 1 μM Doxorubicin, 24 h treatment
Excerpt: Melanoma cells of the Sk-MEL-28 (ATCC) cell line were encapsulated in the GG/GelMA compartment and human dermal fibroblasts (hDFs) were encapsulated in the GG compartment, both representing the cancer and stroma, respectively, separated by the basement-membrane-mimicking GelTrex/HA. […] In order to track the different cell types, these were stained with CellBrite Green and Orange (Biotium) according to the manufacturer's instructions. […] With this model, melanoma cells were included in the cancer compartment, and dermal fibroblasts within the stromal compartment, both separated by a GelTrex BM in a unique melanoma-on-a-fibre structure. Fibres with tracked cells were observed under an Inverted Confocal Laser Scanning Microscope (Leica), throughout one week of culture.
For the drug tests, fibroblasts were stained blue prior to encapsulation using CellTracker blue CMAC Dye (7-amino 4-chloromethylcoumarin, Molecular Probes) according to manufacturer's instructions. These were then integrated in the fibres together with the cancer cells, and all modular fibres were produced. 24 h after fabrication, fibres were incubated with either culture medium (no treatment) or culture medium containing 1 μM of Doxorubicin (Carbosynth). One day after treatment, samples were incubated with medium containing 1:1000 dilution of Calcein AM (Thermofisher) and 1 μg/mL Propidium Iodide (Molecular Probes) for 30 mins at 37° C., 5% CO2, for viability assessment. Images of the fibres were acquired in the Axio Observer inverted Microscope (Zeiss), and a cell profiler pipeline was used to derive the numbers of live and dead cells using the blue staining to distinguish fibroblasts from melanoma cells. Similarly, 2D controls were obtained by simply seeding the cells individually or in co-culture in 24 well-plates at a density of 20×10^3 cells per well (10×10^3 cells of each type in the case of co-cultures). 2D controls were then processed in the same way as the fibres. […]

**Q.** Which results are given for `COc1cccc2c1C(=O)c1c(O)c3c(c(O)c1C2=O)C[C@@](O)(C(=O)CO)C[C@@H]3O[C@H]1C[C@H](N)[C@H](O)[C@H](C)O1` [Doxorubicin]?
**A.** cancer cell viability vs. the control (cancer-only fibres): significant drop in viability; cancer cell viability vs. the control (cancer/stroma fibres (no BM)): no longer significant; numbers of live cancer cells upon treatment (full cancer/BM/stroma fibres): numbers of live cancer cells can improve
